Data taken from patent publication US4259235A, “Tricyclic nitrogenous compounds having string plant growth regulating properties” (BASF Aktiengesellschaft, priority 1977, dated 1981).

How the values were obtained:
[1] = tested on: Sinapis alba; experiment: Herbicidal action, pre- and postemergence application in the greenhouse; type: in vivo; conditions: post-emergence, 3.0 kg/ha POST, read-out: % damage
Procedure: (§1) Plastic flowerpots having a volume of 300 cm^3 were filled with a sandy loam and the test plants placed therein (either as seed, as vegetatively reproduced species, or as potted plants, e.g., vines). For preemergence treatment, the active ingredients were suspended or emulsified in water as vehicle and sprayed onto the surface of the soil immediately after sowing by means of finely distributing nozzles. The potted vines were treated by spraying them with the correspondingly diluted liquor. For postemergence treatment, the agents were, as stated above, sprayed in water onto the leaves of the test plants, some liquor also falling onto the soil. In some special cases, solid active ingredients were first dissolved in dimethylformamide and then applied in a total liquor amount of 400 liters of water per hectare. For the postemergence treatment, the plants were first grown to a height of from 3 to 10 cm before being treated. With grasses, the first growth was cut, and the new growth treated 2 to 3 days after cutting. The temperature requirements of the plants were taken into account by placing them in cooler or warmer sections of the greenhouse. The experiments were run for from 4 to 6 weeks, during which time the plants were tended and their reaction to the various treatments was assessed.
(§2) The application rates are given in kg/ha of active ingredient, regardless of the method of application and the amount of water used.
(§3) A 0 to 100 scale was used for the evaluation, 0 denoting normal emergence or no damage (or no inhibition), and 100 denoting non-emergence or complete destruction of the plants. A distinction should be made in the influence on growth between desired changes without any appreciable disadvantageous phytotoxic effects (e.g., purely growth-regulating effects) and those of a phytotoxic herbicical character.

[2] = tested on: spring barley; experiment: Growth height of spring barley, leaf treatment, Example 11; type: in vivo, spring barley ("Union" variety)
Procedure: (§4) The test plants--spring wheat ("Opal" variety), spring barley ("Union" variety) and spring rye ("Petkuser" variety)--were grown under greenhouse conditions in plastic dishes 11.5 cm in diameter, in a peat substrate provided with sufficient nutrients.
(§5) Leaf treatment was effected by spraying the plants at a growth height of 11 cm with aqueous formulations of the active ingredients, at three application rates.
(§6) The shortening effect caused by the compounds was shown by measurements of the height of the plants at the end of the experiment.
(§7) The prior art compound N,N,N-trimethyl-N-β-chloroethylammonium chloride (CCC, German Printed Application DAS No. 1,294,734) was used for comparison purposes.

[3] = tested on: spring barley; experiment: Growth height of spring barley, soil (preemergence) treatment, Example 9; type: in vivo, spring barley ("Union" variety); conditions: 30 days
Procedure: (§8) Spring wheat of the "Opal" variety and spring barley of the "Union" variety were grown in the winter half of the year under greenhouse conditions in plastic dishes 11.5 cm in diameter, in a peat substrate provided with sufficient nutrients.
(§9) The reductions in growth height caused by the treatment were determined by measuring the height of the plants at the end of the experiment after 30 days' growth, and comparing it with that of untreated plants.

[4] = tested on: spring rye; experiment: Growth height of spring rye, leaf treatment, Example 11; type: in vivo, spring rye ("Petkuser" variety)
Procedure: as §4, §5, §6, §7

[5] = tested on: spring barley; experiment: Growth height of spring barley, leaf treatment, Example 10; type: in vivo, spring barley ("Union" variety)
Procedure: Spring wheat ("Opal" variety) and spring barley ("Union" variety) were grown under greenhouse conditions in plastic dishes 11.5 cm in diameter, in a peat substrate provided with sufficient nutrients. For the soil (preemergence) treatment, the active ingredients were poured, at two application rates, as aqueous formulations onto the surface of the substrate after sowing.
Leaf treatment was effected by spraying the plants at a growth height of 10 cm with aqueous formulations of the active ingredients at two application rates.
The plant height was measured at the end of the experiment. The figures obtained show the shortening effect of the active ingredients under investigation. The prior art compound β-chloroethylphosphonic acid (Ethephon, German Printed Application DAS No. 1,667,968) was used for comparison purposes.

[6] = tested on: potted vines; experiment: Tolerance by potted vines in greenhouse; spray application; type: in vivo
Procedure: as §1, §2, §3

[7] = tested on: Poa pratensis; experiment: Growth inhibition in lawns, preemergence treatment in the greenhouse; type: in vivo
Procedure: as §1, §2, §3

[8] = tested on: spring wheat; experiment: Growth height of spring wheat, soil (preemergence) treatment, Example 9; type: in vivo, spring wheat ("Opal" variety); conditions: 30 days
Procedure: as §8, §9

[9] = tested on: spring wheat; experiment: Growth height of spring wheat, leaf treatment, Example 11; type: in vivo, spring wheat ("Opal" variety)
Procedure: as §4, §5, §6, §7

## BrC1=CC2CC1C1N=NC21 (stereo not drawn)
[1]
  pest or weed control at 3000 g/ha: 100%

## Clc1ccc(NC2C(Cl)C3CC2C2N=NC32)cc1 (stereo not drawn) [drawing 419]
[2]; 0.75 kg/ha
  Plant height: 26.0 cm
  Plant height, % of untreated control: 93.5%
[2]; 1.50 kg/ha
  Plant height: 25.5 cm
  Plant height, % of untreated control: 91.7%
[2]; 3.00 kg/ha
  Plant height: 23.5 cm
  Plant height, % of untreated control: 84.5%

## C1C2C3N=NC3C1C1OC21 (stereo not drawn) [drawing 390]
[3]; 3 kg/ha
  Plant height: 25.0 cm
  Plant height, % of untreated control: 77.4%
[3]; 12 kg/ha
  Plant height: 14.0 cm
  Plant height, % of untreated control: 43.3%

## Clc1ccc(NC2C(Cl)C3CC2C2N=NC32)cc1 (stereo not drawn) [drawing 423]
[4]; 0.75 kg/ha
  Plant height: 25.5 cm
  Plant height, % of untreated control: 89.5%
[4]; 1.50 kg/ha
  Plant height: 24.5 cm
  Plant height, % of untreated control: 86.0%
[4]; 3.00 kg/ha
  Plant height: 24.5 cm
  Plant height, % of untreated control: 86.0%

## Brc1ccc(C2=NOC3C4CC(C5N=NC45)C23)cc1 (stereo not drawn) [drawing 411]
[5]; 1.5 kg/ha
  Plant height: 25.5 cm
  Plant height, % of untreated control: 91.1%
[5]; 6.0 kg/ha
  Plant height: 25.0 cm
  Plant height, % of untreated control: 89.3%

## BrC1C(Br)C2CC1C1N=NC21 (stereo not drawn) [drawing 427]
[6]; 4.0 and 8.0 kg/ha
  Potted vines - leaf damage: none
[6]; 4.0 kg/ha
  Change in shoot growth: 14.7 cm
[6]; 8.0 kg/ha
  Change in shoot growth: 13.3 cm

## c1ccc(C2N=NC3C4CC(C5N=NC45)C23)cc1 (stereo not drawn) [drawing 418]
[2]; 0.75 kg/ha
  Plant height: 23.5 cm
  Plant height, % of untreated control: 84.5%
[2]; 1.50 kg/ha
  Plant height: 23.0 cm
  Plant height, % of untreated control: 82.7%
[2]; 3.00 kg/ha
  Plant height: 21.5 cm
  Plant height, % of untreated control: 77.3%

## [O-][N+]1=NC2C3CC(C4C3N4c3ccc(Br)cc3)C21 (stereo not drawn)
[7]; 0.5 to 4.0 kg/ha
  Growth after emergence, remark: very short growth overall; grass compact
[7]; Poa pratensis, pre-emergence, 0.5 kg/ha, read-out: % growth inhibition after emergence
  inhibition at 500 g/ha: 50%
[7]; Poa pratensis, pre-emergence, 1.0 kg/ha, read-out: % growth inhibition after emergence
  inhibition at 1000 g/ha: 60%
[7]; Poa pratensis, pre-emergence, 2.0 kg/ha, read-out: % growth inhibition after emergence
  inhibition at 2000 g/ha: 60%
[7]; Poa pratensis, pre-emergence, 4.0 kg/ha, read-out: % growth inhibition after emergence
  inhibition at 4000 g/ha: 70%

## c1ccc(C2=NOC3C4CC(C5N=NC45)C23)cc1 (stereo not drawn) [drawing 389]
[8]; 3 kg/ha
  Plant height: 20.0 cm
  Plant height, % of untreated control: 66.7%
[8]; 12 kg/ha
  Plant height: 14.0 cm
  Plant height, % of untreated control: 46.7%

## c1ccc(C2=NNC3C4CC(C5N=NC45)C23)cc1 (stereo not drawn) [drawing 416]
[9]; 0.75 kg/ha
  Plant height: 26.5 cm
  Plant height, % of untreated control: 86.0%
[9]; 1.50 kg/ha
  Plant height: 25.5 cm
  Plant height, % of untreated control: 82.8%
[9]; 3.00 kg/ha
  Plant height: 24.0 cm
  Plant height, % of untreated control: 77.9%
